Data taken from patent publication US5460977A, “Peptide having allergenicity” (Torii & Co., priority 1992, dated 1995).
Positions of bridges follow the written chain, without caps; N, C: chain ends. Residues, ends and D or L forms follow the SMILES beside them. Chains are numbered I, II in the order given.

Key:
[1] = test system: peripheral blood lymphocytes of mite-allergic patient; assay: Blast formation of lymphocytes (3H-thymidine incorporation), mite-allergic patients; format: cell-based, human; settings: 7 days culture with peptide, 3H-thymidine overnight; for radioactivity of 3H-thymidine incorporated into lymphocytes, Specimen 1: Specimen 1, lymphocytes of mite-allergic patient; for radioactivity of 3H-thymidine incorporated into lymphocytes, Specimen 2: Specimen 2, lymphocytes of mite-allergic patient; for radioactivity of 3H-thymidine incorporated into lymphocytes, Specimen 3: Specimen 3, lymphocytes of mite-allergic patient
Protocol: (§1) Blast formation of lymphocytes by peptides of formula I-V of the present invention
(§2) Peripheral blood lymphocytes collected from a mite-allergic patient or a non-allergic subject were suspended in a cell culture medium RPMI 1640 supplemented with 10% fetal bovine serum, so as to give a suspension of 1×10^6 cells/ml. Then, the suspension (0.2 ml/well) prepared above was placed in a 96-well microplate for cell culture and further, 20 μl each of a solution of one of the peptides of the formula I-V was placed in the respective wells. The lymphocytes thus treated were cultivated in a humidified atmosphere containing 5% CO2 at 37° C. for 7 days. Thereafter, 20 μl of a ^3 H-thymidine solution (12.5 μCi/ml) was added to each of the wells and allowed to react overnight. The peripheral blood lymphocytes were then collected onto filter, and the radioactivity was measured by a liquid scintillation counter.
(§3) As is apparent from Table 1, virtually no incorporation of ^3 H-thymidine was recognized in the peripheral blood lymphocyte of a non-allergic subject, while a high radioactivity was detected from the peripheral blood lymphocytes of a mite-allergic patient.

[2] = test system: peripheral blood lymphocytes of non-allergic subject; assay: Blast formation of lymphocytes (3H-thymidine incorporation), non-allergic subject; format: cell-based, human; settings: Specimen 4, lymphocytes of non-allergic subject; 7 days culture with peptide, 3H-thymidine overnight
Protocol: as §1, §2, §3

Molecule | radioactivity of 3H-thymidine incorporated into lymphocytes, Specimen 1 [1] [cpm] | radioactivity of 3H-thymidine incorporated into lymphocytes, Specimen 2 [1] [cpm] | radioactivity of 3H-thymidine incorporated into lymphocytes, Specimen 3 [1] [cpm] | radioactivity of 3H-thymidine incorporated into lymphocytes, Specimen 4 [2] [cpm]
CC[C@H](C)[C@H](NC(=O)[C@H](CCC(=O)O)NC(=O)[C@H](CC(N)=O)NC(=O)[C@H](CC(N)=O)NC(=O)[C@H](C)NC(=O)[C@H](CSSC[C@H](NC(=O)[C@H](CC(=O)O)NC(=O)[C@H](CCCCN)NC(=O)[C@@H](NC(=O)[C@H](CC(=O)O)NC(=O)[C@@H](NC(=O)[C@H](CCC(N)=O)NC(=O)[C@@H](N)CC(=O)O)C(C)C)C(C)C)C(=O)N[C@@H](C)C(=O)N[C@@H](CC(N)=O)C(=O)N[C@@H](CC(N)=O)C(=O)N[C@@H](CCC(=O)O)C(=O)N[C@H](C(=O)N[C@@H](CCCCN)C(=O)N[C@@H](CCCCN)C(=O)O)[C@@H](C)CC)NC(=O)[C@H](CC(=O)O)NC(=O)[C@H](CCCCN)NC(=O)[C@@H](NC(=O)[C@H](CC(=O)O)NC(=O)[C@@H](NC(=O)[C@H](CCC(N)=O)NC(=O)[C@@H](N)CC(=O)O)C(C)C)C(C)C)C(=O)N[C@@H](CCCCN)C(=O)N[C@@H](CCCCN)C(=O)O [II] (I: H-DQVDVKDCANNEIKK-OH / II: H-DQVDVKDCANNEIKK-OH; disulfide I:8-II:8) | 219 | 125 | 158 | < 100
CC[C@H](C)[C@H](NC(=O)[C@H](C)NC(=O)[C@H](CSSC[C@H](NC(=O)[C@H](C)NC(=O)[C@H](CC(C)C)NC(=O)[C@@H](NC(=O)CN)C(C)C)C(=O)N[C@@H](C)C(=O)N[C@H](C(=O)N[C@@H](C)C(=O)N[C@H](C(=O)N[C@@H](Cc1c[nH]cn1)C(=O)N[C@@H](C)C(=O)N[C@@H](CCCCN)C(=O)N[C@H](C(=O)N[C@@H](CCCNC(=N)N)C(=O)N[C@@H](CC(=O)O)C(=O)O)[C@@H](C)CC)[C@@H](C)O)[C@@H](C)CC)NC(=O)[C@H](C)NC(=O)[C@H](CC(C)C)NC(=O)[C@@H](NC(=O)CN)C(C)C)C(=O)N[C@@H](C)C(=O)N[C@H](C(=O)N[C@@H](Cc1c[nH]cn1)C(=O)N[C@@H](C)C(=O)N[C@@H](CCCCN)C(=O)N[C@H](C(=O)N[C@@H](CCCNC(=N)N)C(=O)N[C@@H](CC(=O)O)C(=O)O)[C@@H](C)CC)[C@@H](C)O [IV] (I: H-GVLACAIATHAKIRD-OH / II: H-GVLACAIATHAKIRD-OH; disulfide I:5-II:5) | 374 | 324 | 162 | < 100
CC[C@H](C)[C@H](NC(=O)[C@H](C)NC(=O)[C@H](CSSC[C@H](NC(=O)[C@H](CC(=O)O)NC(=O)[C@H](CCCCN)NC(=O)[C@@H](NC(=O)[C@H](CC(=O)O)NC(=O)[C@@H](NC(=O)[C@H](CCC(N)=O)NC(=O)[C@@H](N)CC(=O)O)C(C)C)C(C)C)C(=O)N[C@@H](C)C(=O)N[C@@H](CC(N)=O)C(=O)N[C@@H](CC(N)=O)C(=O)N[C@@H](CCC(=O)O)C(=O)N[C@H](C(=O)N[C@@H](CCCCN)C(=O)N[C@@H](CCCCN)C(=O)O)[C@@H](C)CC)NC(=O)[C@H](C)NC(=O)[C@H](CC(C)C)NC(=O)[C@@H](NC(=O)CN)C(C)C)C(=O)N[C@@H](C)C(=O)N[C@H](C(=O)N[C@@H](Cc1c[nH]cn1)C(=O)N[C@@H](C)C(=O)N[C@@H](CCCCN)C(=O)N[C@H](C(=O)N[C@@H](CCCNC(=N)N)C(=O)N[C@@H](CC(=O)O)C(=O)O)[C@@H](C)CC)[C@@H](C)O [V] (I: H-DQVDVKDCANNEIKK-OH / II: H-GVLACAIATHAKIRD-OH; disulfide I:8-II:5) | 1457 | 430 | 179 | < 100
H-DQVDVKDCANNEIKK-OH [I, H-Asp-Gln-Val-Asp-Val-Lys-Asp-Cys-Ala-Asn-Asn-Glu-Ile-Lys-Lys-OH] | 281 | 389 | 282 | < 100
H-GVLACAIATHAKIRD-OH [III, H-Gly-Val-Leu-Ala-Cys-Ala-Ile-Ala-Thr-His-Ala-Lys-Ile-Arg-Asp-OH] | 547 | 259 | 158 | < 100
